# Assay results: article PMC10024865 (Journal of medicinal chemistry, 2022)
# Assays:
# [1] = test system: PNC prevalence in PC3M cells (GFP-PTB); experiment: High-content assay for PNC reduction; assay type: cell-based
# in vivo = conditions: ip
# [2] = test system: nucleolar volume in PC3M cells; experiment: Nucleolar disassembly assay; assay type: cell-based; conditions: 24 hr, concentration-response
# [3] = mouse, in vivo, ip, 5 mg/kg
# [4] = test system: nucleolar architecture in PC3M cells; experiment: Immunofluorescence of nucleolar markers RP-194 and NOPP140; assay type: cell-based; conditions: 1 μM, 1 hour
# [5] = Parallel artificial membrane permeability assay; assay type: in vitro ADME; conditions: pH 7.4
# PC3M cells [6] = experiment: BellBrook Labs tumor cell migration; assay type: cell-based; conditions: 3D collagen
# PC3M cells [7] = experiment: Secondary cytotoxicity/viability assays; assay type: cell-based; conditions: ATP, caspase 3/7, PicoGreen
smiles,measurement,setting,value
"N#Cc1c(-c2ccccc2)c(-c2ccccc2)n(Cc2ccccc2)c1/N=C/N[C@H]1CC[C@H](O)CC1 [Compound 4f, (E)-N'-(1-benzyl-3-cyano-4,5-diphenyl-1H-pyrrol-2-yl)-N-((trans)-4-hydroxycyclohexyl)formimidamide]",PNC reduction activity (in words),[1],inactive
"N=c1c2c(-c3ccccc3)c(-c3ccccc3)n(Cc3ccccc3)c2ncn1[C@H]1CC[C@H](O)CC1 [Compound 5f, trans-4-(7-Benzyl-4-imino-5,6-diphenyl-4,7-dihydro-3H-pyrrolo[2,3-d]pyrimidin-3-yl)cyclohexan-1-ol]",half-life,"in vivo; female, BALB/c, mouse, 5 mg/kg",4.64 h
same,half-life,"in vivo; female, BALB/c, mouse, 25 mg/kg",5.52 h
same,concentration at 48 h,"in vivo; female, BALB/c, mouse, 25 mg/kg, C48h (μM)",0.011 µM
same,half-life,"in vivo; male, C57BL/6, mouse, 50 mg/kg",16.4 h
same,effect on nucleolar volume,[2],able to reduce nucleolar volume
same,C48h (μM),[3],BLQ^b
"OCCCNc1ncnc2c1c(-c1ccccc1)c(-c1ccccc1)n2Cc1ccccc1 [Compound 13a, 3-((7-Benzyl-5,6-diphenyl-7H-pyrrolo[2,3-d]pyrimidin-4-yl)amino)propan-1-ol]",PNC reduction activity (in words),[1],uniformly inactive
"O[C@H]1CC[C@H](Nc2ncnc3c2c(-c2ccccc2)c(-c2ccccc2)n3Cc2ccccc2)CC1 [Compound 13b, trans-4-((7-Benzyl-5,6-diphenyl-7H-pyrrolo[2,3-d]pyrimidin-4-yl)amino)cyclohexan-1-ol]",PNC reduction activity (in words),[1],uniformly inactive
"N=c1c2c(-c3ccccc3)cn(Cc3ccccc3)c2ncn1C1CCOCC1 [Compound 11b, 7-Benzyl-5-phenyl-3-(tetrahydro-2H-pyran-4-yl)-3,7-dihydro-4H-pyrrolo[2,3-d]pyrimidin-4-imine]",effect on nucleolar volume,[2],did not influence nucleolar integrity and morphology
same,distribution of RP-194 and NOPP140 in the nucleolus,[4],diffuse distribution
"Cc1c(C)n(Cc2ccccc2)c2ncn([C@H]3CC[C@H](O)CC3)c(=N)c12 [Compound 5nnn, (trans)-4-(7-Benzyl-4-imino-5,6-dimethyl-4,7-dihydro-3H-pyrrolo[2,3-d]pyrimidin-3-yl)cyclohexan-1-ol]",PAMPA permeability (in words),[5],negligible
"CCO/C=N/c1c(C#N)c(-c2ccccc2)c(-c2ccccc2)n1Cc1ccccc1 [Compound 3a, Ethyl (E)-N-(1-benzyl-3-cyano-4,5-diphenyl-1H-pyrrol-2-yl)formimidate]",PNC reduction activity (in words),[1],inactive
O=C(Nc1cccnc1)c1cccs1 [CID 790407],Activity in the invasion assay,PC3M cells [6],active
same,Activity in all other secondary cytotoxicity/viability assays,PC3M cells [7],inactive
N#Cc1c(-c2ccccc2)c(-c2ccccc2)n(Cc2ccccc2)c1N [Compound 2a],PNC reduction activity (in words),[1],inactive
